Source: patent US12440502B2, “Use of thyroid beta-agonists” (priority 2016, dated 2025)

Tests used:
[1] = system: X-ALD fibroblast cell lines; test: Cell health (proliferation, morphology, death) of treated X-ALD fibroblasts; type: cell-based, human; conditions: for cell survival of X-ALD cell lines: 100 μM, two X-ALD cell lines; for proliferation and morphology of cells: after 72 hours
Description: Human primary fibroblasts. Human skin fibroblasts were obtained from X-ALD patients through the Neurology Outpatient Clinic of the Academic Medical Center. Written informed consent was received from each patient. X-ALD diagnosis was confirmed by VLCFA and ABCD1 mutation analysis. Control fibroblasts were obtained from male anonymous volunteers with written informed consent. Fibroblasts were cultured in Dulbecco's modified Eagle's medium (DMEM) with L-glutamine and 4.5 g/L glucose, supplemented with 10% fetal calf serum, 2.5 mM HEPES, 100 U/ml penicillin and 100 U/ml streptomycin. Cells were cultured at 37° C. in a humidified 5% CO2 atmosphere. All fibroblast cell lines used were tested routinely for mycoplasma. All tests were negative.
Preparation of stock solutions. 10 mM stock solutions in DMSO were prepared by weighing the amount of compound (1 and 3 and their respective active metabolites, 2 and 4) as indicated in Table 2. Stock solutions were stored at room temperature in the dark. For each incubation, the amount of tissue culture medium needed was calculated and a stock solution of tissue culture medium with the final concentration of the to-be-tested compound was prepared. Tissue culture medium was removed from the cells, cells were washed once with PBS and the tissue culture medium with the compounds was added. If an experiment lasted longer than three days, the tissue culture medium and compounds were refreshed (using a fresh preparation) after three days until the end of the experiment.
Two different X-ALD fibroblast cell lines were incubated in duplicate with four compounds at three dosages as highlighted in Table 3.
4 X-ALD cell lines were incubated with 10 μM of 4 compounds 1, 2, 3, and 4. The effect of treatment on ABCD2 expression was analyzed at day 3 and day 10. For the 10 day incubation, tissue culture medium and compounds were refreshed at day 3 and day 6.

ABCD1−/− mice [2] = test: Whole blood VLCFA-LPC levels in an in vivo model of X-ALD; design: species or system mouse; conditions: for C26:0-LPC Difference in Mean Change from Baseline / C26:0-LPC % Difference versus Vehicle: initial cohort, whole blood; for Least Squares Mean Change from Baseline Whole Blood C26:0-LPC Levels: second cohort, daily IP
Description: (§1) Animals. Male ABCD1−/− mice were developed using the Taconic 129SvEv background strain. Animals were housed 3-4/cage under a 12-hour lighting cycle (7 AM-7 PM light) and controlled temperature (22° C.) in the rodent facility. They were fed standard mouse chow and had access to drinking water ad libitum. Mice were between 2 and 3 months of age at the beginning of each study.
(§2) Study Protocol. Mice were injected once daily intraperitoneal with either drug or vehicle. For blood collection, ˜50 μL of blood was obtained by facial vein puncture using a sterile lancet. Blood was collected in a 1.5 ml microcentrifuge tube containing dried dipotassium EDTA and mixed by gentle inversion at least ten times before storing at −20° C. Blood was obtained in this manner following two, four, and six weeks of treatment. Following blood collection at six weeks, animals were sacrificed by cervical dislocation. Additional blood for preparation of plasma was obtained via cardiac puncture, and blood placed in Microtainer tubes. Brain, spinal cord, adrenal glands, testis, and liver were excised and snap frozen in liquid nitrogen for future analyses.
An initial cohort of 16 mice were randomized 3:1 to receive compound 3 or placebo, once daily for six weeks. […] Treated animals continued to experience progressive declines in C26:0-LPC through six weeks.
(§3) Based on the encouraging results of the initial cohort, a second, larger, cohort was evaluated. A total of 20 mice were randomized 1:1 to receive daily compound 3 or vehicle, by IP administration, for six weeks.

ABCD1−/− mice [3] = test: Plasma VLCFA-LPC levels in an in vivo model of X-ALD (second cohort); design: species or system mouse
Description: as §1, §2, §3
During the second cohort study, blood was obtained as described in the Methods section. At the six week time point sufficient blood was collected to permit plasma VLCFA analyses at weeks two, four and six. Plasma is considered by many to be a more reliable measurement of VLCFA levels, because of reduced analytical interference from other analytes, as well as reduced variability of the measurements.

X-ALD cell lines [4] = test: De novo D3-C26:0 synthesis from D3-C22:0 in intact X-ALD cells; type: cell-based, human; conditions: 10 day treatment, 5 X-ALD cell lines
Description: The effect of treatment on D3-C26:0 synthesis in intact cells. The effect of certain compounds of the invention on the synthesis of D3-C26:0 from D3-C22:0 was measured in cultured skin fibroblasts from controls and X-ALD patients. Cells were seeded at approximately 40% confluency in T75 flasks in DMEM. The next day, medium was replaced with medium containing 30 μM D3-C22:0 and the assayed compounds at their final concentration. […] Each 72 h, the tissue culture medium and compounds was refreshed. At the end of the experiment cells were harvested and VLCFA analyzed as described (Valianpour et al., Molecular Genetics and Metabolism, 79: 189-196 (2003)).
(§4) VLCFA measurement. VLCFA were analyzed by electrospray ionization mass spectrometry (ESI-MS) as described (Valianpour et al., Molecular Genetics and Metabolism, 79: 189-196 (2003)).
(§5) 5 different X-ALD cell lines were incubated for 6 days with compounds 1, 2, 3, and 4 at 10 μM, 5 mM 4PBA (sodium 4-phenylbutyrate), or 0.1 μM sobetirome. On Day 6, 30 μM D3C22:0 was added to assess the effect of treatment on beta-oxidation and de novo D3C26:0 synthesis. 6 untreated control cells as well as 5 different untreated X-ALD cells were included to allow assessment of the treatment effect. The total set consisted of 41 experiments

X-ALD cell lines [5] = test: D3-C22:0 (VLCFA) beta-oxidation in intact X-ALD cells; type: cell-based, human; conditions: 0.1 μM; 10 day treatment; 5 X-ALD cell lines
Description: The effect of treatment on D3-C22:0 beta-oxidation in intact cells. Peroxisomal beta-oxidation activity was measured essentially as described by incubating cells with 30 μM deuterium-labeled C22:0 (D3-C22:0) (Kemp et al., Clinical Chemistry 50: 1824-1826 (2004)). Cells were seeded at approximately 40% confluency in T75 flasks in DMEM. The next day, medium was replaced with medium containing 30 μM D3-C22:0 and assayed compounds at their final concentration. […] Each 72 h, the tissue culture medium and compounds was refreshed. At the end of the experiment cells were harvested and VLCFA analyzed as described (Valianpour et al., Molecular Genetics and Metabolism, 79: 189-196 (2003)).
as §4, §5

Question: With `Cc1cc(OCP(=O)(OCOC(=O)C(C)(C)C)OCOC(=O)C(C)(C)C)cc(C)c1Cc1ccc(O)c(Cc2ccccc2)c1` [Compound 3] as the compound, how does the “cell survival of X-ALD cell lines” value [1] read?
Answer: dead within 24 hours

Question: What about the “proliferation and morphology of cells” value ([1]; 0.1 or 10 μM) of the same compound?
Answer: looked healthy

Question: And the “C20:0-, C22:0-, and C24:0-LPC levels” value (ABCD1−/− mice [2]; after six weeks of treatment)?
Answer: significant reductions

Question: What about the “C26:0-LPC Difference in Mean Change from Baseline” value (ABCD1−/− mice [2]; week 2) of the same compound?
Answer: -0.052 µM

Question: What about the “C26:0-LPC % Difference versus Vehicle” value (ABCD1−/− mice [2]; week 2, p NS) of the same compound?
Answer: 0%

Question: What about the “C26:0-LPC Difference in Mean Change from Baseline” value (ABCD1−/− mice [2]; week 4) of the same compound?
Answer: -0.081 µM

Question: What about the “C26:0-LPC % Difference versus Vehicle” value (ABCD1−/− mice [2]; week 4, p NS) of the same compound?
Answer: −11%

Question: What about the “C26:0-LPC % Difference versus Vehicle” value (ABCD1−/− mice [2]; week 6, p<0.0001) of the same compound?
Answer: −40%

Question: What about the “Least Squares Mean Change from Baseline Whole Blood C26:0-LPC Levels” value (“Least Squares Mean Change” below) (ABCD1−/− mice [2]; week 2, p NS versus vehicle) of the same compound?
Answer: -0.021 µM

Question: What about the “Least Squares Mean Change” value (ABCD1−/− mice [2]; week 4, p<0.01 versus vehicle) of the same compound?
Answer: -0.096 µM

Question: And the “Least Squares Mean Change” value (ABCD1−/− mice [2]; week 6, p<0.005 versus vehicle)?
Answer: -0.12 µM

Question: And the “Plasma C20:0-LPC % Difference vs. Vehicle” value (ABCD1−/− mice [3]; week 6, p<0.0001)?
Answer: −54%

Question: And the “Plasma C22:0-LPC % Difference vs. Vehicle” value (ABCD1−/− mice [3]; week 6, p<0.0001)?
Answer: −43%

Question: What about the “Plasma C26:0-LPC % Difference vs. Vehicle” value (ABCD1−/− mice [3]; week 6, p<0.0001) of the same compound?
Answer: −29%

Question: And the “Plasma C24:0-LPC % Difference vs. Vehicle” value (ABCD1−/− mice [3]; week 6, p<0.005)?
Answer: −21%

Question: For `O=C([O-])CCCc1ccccc1.[Na+]` [Compound 4PBA, sodium 4-phenylbutyrate], which VLCFA synthesis (X-ALD cell lines [4]; 5 mM) is on record?
Answer: near normal levels

Question: For `Cc1cc(OCP(=O)(O)O)cc(C)c1Cc1ccc(O)c(C(C)C)c1` [Compound 2], which “proliferation and morphology of cells” value ([1]; 0.1, 1 or 10 μM) is on record?
Answer: looked healthy

Question: How did the “cell survival of X-ALD cell lines” value [1] turn out when `Cc1cc(OC[P@@]2(=O)OCC[C@@H](c3cccc(Cl)c3)O2)cc(C)c1Cc1ccc(O)c(C(C)C)c1` [Compound 1] was run?
Answer: dead within 24 hours

Question: And the “proliferation and morphology of cells” value ([1]; 0.1 or 10 μM)?
Answer: looked healthy

Question: What does the source list for `Cc1cc(OCC(=O)O)cc(C)c1Cc1ccc(O)c(C(C)C)c1` [sobetirome]?
Answer: effect on VLCFA beta-oxidation (X-ALD cell lines [5]): did not show any beneficial effect; effect on VLCFA de novo synthesis (X-ALD cell lines [4]; 0.1 μM): did not show any beneficial effect

Question: How did the “proliferation and morphology of cells” value ([1]; 0.1, 1 or 10 μM) turn out when `Cc1cc(OCP(=O)(O)O)cc(C)c1Cc1ccc(O)c(Cc2ccccc2)c1` [Compound 4] was run?
Answer: looked healthy
